In article PMC5474674, “D-BMAP18 Antimicrobial Peptide Is Active In vitro, Resists to Pulmonary Proteases but Loses Its Activity in a Murine Model of Pseudomonas aeruginosa Lung Infection” (Frontiers in Chemistry, 2017):
≈ marks a conversion by molar mass, not a printed value. Where a SMILES comes first, the peptide text is derived from it. [ ]: non-standard residue; d: D form.

How the values were obtained:
P. aeruginosa PA01 = experiment: MIC/MBC broth microdilution; assay type: cell-based, Pseudomonas aeruginosa; details: D-BMAP18, strain PA01, n = 6
Protocol: (§1) MIC values were determined using the broth microdilution method.

P. aeruginosa PA05 = experiment: MIC/MBC broth microdilution; assay type: cell-based, Pseudomonas aeruginosa; details: D-BMAP18, strain PA05, n = 6
Protocol: as §1

P. aeruginosa PA07 = experiment: MIC/MBC broth microdilution; assay type: cell-based, Pseudomonas aeruginosa; details: D-BMAP18, strain PA07, n = 6
Protocol: as §1

P. aeruginosa PA08 = experiment: MIC/MBC broth microdilution; assay type: cell-based, Pseudomonas aeruginosa; details: D-BMAP18, strain PA08, n = 6
Protocol: as §1

P. aeruginosa PA09 = experiment: MIC/MBC broth microdilution; assay type: cell-based, Pseudomonas aeruginosa; details: D-BMAP18, strain PA09, n = 6
Protocol: as §1

P. aeruginosa PA10 = experiment: MIC/MBC broth microdilution; assay type: cell-based, Pseudomonas aeruginosa; details: D-BMAP18, strain PA10, n = 6
Protocol: as §1

P. aeruginosa PA21 = experiment: MIC/MBC broth microdilution; assay type: cell-based, Pseudomonas aeruginosa; details: D-BMAP18, strain PA21, n = 6
Protocol: as §1

P. aeruginosa PA31 = experiment: MIC/MBC broth microdilution; assay type: cell-based, Pseudomonas aeruginosa; details: D-BMAP18, strain PA31, n = 6
Protocol: as §1

S. maltophilia SM103 = experiment: MIC/MBC broth microdilution; assay type: cell-based, Stenotrophomonas maltophilia; details: D-BMAP18, strain SM103, n = 6
Protocol: as §1

S. maltophilia SM105 = experiment: MIC/MBC broth microdilution; assay type: cell-based, Stenotrophomonas maltophilia; details: D-BMAP18, strain SM105, n = 6
Protocol: as §1

S. maltophilia SM106 = experiment: MIC/MBC broth microdilution; assay type: cell-based, Stenotrophomonas maltophilia; details: D-BMAP18, strain SM106, n = 6
Protocol: as §1

S. maltophilia SM110 = experiment: MIC/MBC broth microdilution; assay type: cell-based, Stenotrophomonas maltophilia; details: D-BMAP18, strain SM110, n = 6
Protocol: as §1

S. maltophilia SM120 = experiment: MIC/MBC broth microdilution; assay type: cell-based, Stenotrophomonas maltophilia; details: D-BMAP18, strain SM120, n = 6
Protocol: as §1

S. maltophilia SM122 = experiment: MIC/MBC broth microdilution; assay type: cell-based, Stenotrophomonas maltophilia; details: D-BMAP18, strain SM122, n = 6
Protocol: as §1

S. maltophilia SM123 = experiment: MIC/MBC broth microdilution; assay type: cell-based, Stenotrophomonas maltophilia; details: D-BMAP18, strain SM123, n = 6
Protocol: as §1

S. maltophilia SM126 = experiment: MIC/MBC broth microdilution; assay type: cell-based, Stenotrophomonas maltophilia; details: D-BMAP18, strain SM126, n = 6
Protocol: as §1

S. maltophilia SM130 = experiment: MIC/MBC broth microdilution; assay type: cell-based, Stenotrophomonas maltophilia; details: D-BMAP18, strain SM130, n = 6
Protocol: as §1

S. maltophilia SM136 = experiment: MIC/MBC broth microdilution; assay type: cell-based, Stenotrophomonas maltophilia; details: D-BMAP18, strain SM136, n = 6
Protocol: as §1

S. maltophilia SM139 = experiment: MIC/MBC broth microdilution; assay type: cell-based, Stenotrophomonas maltophilia; details: D-BMAP18, strain SM139, n = 6
Protocol: as §1

S. maltophilia SM143 = experiment: MIC/MBC broth microdilution; assay type: cell-based, Stenotrophomonas maltophilia; details: D-BMAP18, strain SM143, n = 6
Protocol: as §1

S. maltophilia = assay type: cell-based, Stenotrophomonas maltophilia; details: 24 h
Protocol: P. aeruginosa, S. maltophilia, and Staphylococcus aureus strains were originally isolated from respiratory specimens of CF patients admitted to the “Bambino Gesù” Children Hospital in Rome and previously tested with AMPs (Pompilio et al., [2012]). P. aeruginosa RP73, and PAO1 were tested as reference strains.
as §1

P. aeruginosa RP73 = assay type: in vivo, mouse; details: mouse, in vivo
Protocol: C57/Bl6NCrl mice (n = 8/group) were intratracheally challenged with 1 × 10^7 cells P. aeruginosa RP73 clinical strain, and 5 min later a single dose of D-BMAP18 at different concentrations (0.5, 1, and 2 mg/kg) was intratracheally administrated. Sterile distilled water alone or tobramycin [10 mg/kg] (Sigma-Aldrich S.r.l.), were used respectively as negative and positive control. […] Subsequently, lungs were homogenized (24,000 rpm) on ice in 1 ml of sterile PBS by using Ultra-Turrax T25-Basic homogenizer (IKA-Werke GmbH & Co. KG, Germany). Ten-fold serial dilutions of lung homogenates were plated on MH agar (Oxoid SpA), and the number of colony-forming units (CFU) was counted after incubation at 37°C for 24 h.

[1] = broth microdilution, MH broth, 37°C 24 h
[2] = kills at least 99.9% of inoculum

`CC(C)C[C@@H](NC(=O)[C@@H](CCCCN)NC(=O)[C@@H](CCCCN)NC(=O)[C@@H](Cc1ccccc1)NC(=O)[C@@H](CC(C)C)NC(=O)[C@@H](CCCCN)NC(=O)[C@@H](CCCCN)NC(=O)[C@@H](Cc1ccccc1)NC(=O)[C@@H](CCCCN)NC(=O)[C@@H](CCCCN)NC(=O)[C@@H](CCCNC(=N)N)NC(=O)[C@@H](Cc1ccccc1)NC(=O)[C@@H](CCCNC(=N)N)NC(=O)[C@@H](CCCCN)NC(=O)[C@@H](Cc1ccccc1)NC(=O)[C@@H](CCCNC(=N)N)NC(=O)CN)C(=O)N[C@H](CO)C(N)=O` [D-BMAP18] (H-G[dR][dF][dK][dR][dF][dR][dK][dK][dF][dK][dK][dL][dF][dK][dK][dL][dS]-NH2) was tested, and the MIC (P. aeruginosa PA01; [1]) was 8 µg/mL (≈ 3.42 µM), the MBC (P. aeruginosa PA01; [2]) was 32 µg/mL (≈ 13.7 µM) and the MIC (P. aeruginosa PA05; [1]) was 4 µg/mL (≈ 1.71 µM). For the same compound, the MBC (P. aeruginosa PA05; [2]) was 8 µg/mL (≈ 3.42 µM), the MIC (P. aeruginosa PA07; [1]) was 8 µg/mL (≈ 3.42 µM) and the MBC (P. aeruginosa PA07; [2]) was 8 µg/mL (≈ 3.42 µM). For the same compound, the MIC (P. aeruginosa PA08; [1]) was 8 µg/mL (≈ 3.42 µM), the MBC (P. aeruginosa PA08; [2]) was 16 µg/mL (≈ 6.83 µM) and the MIC (P. aeruginosa PA09; [1]) was 16 µg/mL (≈ 6.83 µM). The MBC (P. aeruginosa PA09; [2]) was 32 µg/mL (≈ 13.7 µM), the MIC (P. aeruginosa PA10; [1]) was 16 µg/mL (≈ 6.83 µM) and the MBC (P. aeruginosa PA10; [2]) was 32 µg/mL (≈ 13.7 µM). It also gave an MIC (P. aeruginosa PA21; [1]) of 16 µg/mL (≈ 6.83 µM), an MBC (P. aeruginosa PA21; [2]) of 32 µg/mL (≈ 13.7 µM) and an MIC (P. aeruginosa PA31; [1]) of 16 µg/mL (≈ 6.83 µM). It also gave an MBC (P. aeruginosa PA31; [2]) of 32 µg/mL (≈ 13.7 µM), an MIC (S. maltophilia SM103; [1]) of 4 µg/mL (≈ 1.71 µM) and an MBC (S. maltophilia SM103; [2]) of 4 µg/mL (≈ 1.71 µM). The MIC (S. maltophilia SM105; [1]) was 8 µg/mL (≈ 3.42 µM), the MBC (S. maltophilia SM105; [2]) was 8 µg/mL (≈ 3.42 µM) and the MIC (S. maltophilia SM106; [1]) was 32 µg/mL (≈ 13.7 µM). The MBC (S. maltophilia SM106; [2]) was 32 µg/mL (≈ 13.7 µM), the MIC (S. maltophilia SM110; [1]) was 4 µg/mL (≈ 1.71 µM) and the MBC (S. maltophilia SM110; [2]) was 4 µg/mL (≈ 1.71 µM). For the same compound, the MIC (S. maltophilia SM120; [1]) was 8 µg/mL (≈ 3.42 µM), the MBC (S. maltophilia SM120; [2]) was 16 µg/mL (≈ 6.83 µM) and the MIC (S. maltophilia SM122; [1]) was 16 µg/mL (≈ 6.83 µM). For the same compound, the MBC (S. maltophilia SM122; [2]) was 16 µg/mL (≈ 6.83 µM), the MIC (S. maltophilia SM123; [1]) was 16 µg/mL (≈ 6.83 µM) and the MBC (S. maltophilia SM123; [2]) was 16 µg/mL (≈ 6.83 µM). It also gave an MIC (S. maltophilia SM126; [1]) of 16 µg/mL (≈ 6.83 µM), an MBC (S. maltophilia SM126; [2]) of 32 µg/mL (≈ 13.7 µM) and an MIC (S. maltophilia SM130; [1]) of 8 µg/mL (≈ 3.42 µM). For the same compound, the MBC (S. maltophilia SM130; [2]) was 16 µg/mL (≈ 6.83 µM), the MIC (S. maltophilia SM136; [1]) was 8 µg/mL (≈ 3.42 µM) and the MBC (S. maltophilia SM136; [2]) was 16 µg/mL (≈ 6.83 µM). For the same compound, the MIC (S. maltophilia SM139; [1]) was 8 µg/mL (≈ 3.42 µM), the MBC (S. maltophilia SM139; [2]) was 8 µg/mL (≈ 3.42 µM) and the MIC (S. maltophilia SM143; [1]) was 8 µg/mL (≈ 3.42 µM). For the same compound, the MBC (S. maltophilia SM143; [2]) was 8 µg/mL (≈ 3.42 µM), the MIC90 (S. maltophilia) was 16 µg/mL (≈ 6.83 µM) and the “trend between dose and macroscopic lung damage” value (P. aeruginosa RP73) was “not statistically significant”.
